Source: PMC8063026 (Frontiers in Pharmacology, 2021)
Read-outs that look alike come from different tables or passages of the source.

What was measured:
human NET [1] = biological target: T1, human NET (Homo sapiens, UniProt P23975); conditions: QSAR data matrix; unit inferred; compounds not tested in this paper, source not given, presumably ref Mayer et al., 2019; cited from earlier work
T1 construct: expressed in transfected cells

DAT [2] = biological target: T2, DAT (Homo sapiens, UniProt Q01959); conditions: QSAR data matrix; unit inferred; compounds not tested in this paper, source not given, presumably ref Mayer et al., 2019; read-out: IC50 DAT; cited from earlier work
T2 construct: expressed in transfected cells
T2 sequence (Q01959 whole entry): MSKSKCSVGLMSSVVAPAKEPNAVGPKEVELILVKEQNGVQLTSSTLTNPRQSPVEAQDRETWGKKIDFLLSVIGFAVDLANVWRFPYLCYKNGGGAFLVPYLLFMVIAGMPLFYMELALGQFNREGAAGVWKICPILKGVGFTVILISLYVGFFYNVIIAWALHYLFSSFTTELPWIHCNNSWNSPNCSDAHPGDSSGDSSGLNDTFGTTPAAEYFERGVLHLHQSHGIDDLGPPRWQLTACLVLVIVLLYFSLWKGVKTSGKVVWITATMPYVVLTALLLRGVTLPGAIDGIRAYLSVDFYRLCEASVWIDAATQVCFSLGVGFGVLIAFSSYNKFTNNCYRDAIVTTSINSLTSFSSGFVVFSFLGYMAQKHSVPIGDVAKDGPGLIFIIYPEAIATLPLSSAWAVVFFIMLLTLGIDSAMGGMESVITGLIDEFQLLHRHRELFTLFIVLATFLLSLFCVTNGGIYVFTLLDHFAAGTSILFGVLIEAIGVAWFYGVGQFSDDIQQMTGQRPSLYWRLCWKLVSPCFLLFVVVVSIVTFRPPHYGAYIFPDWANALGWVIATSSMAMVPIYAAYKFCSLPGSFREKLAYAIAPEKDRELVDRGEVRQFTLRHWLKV

DAT [3] = biological target: T2, DAT; assay: cell-based
SERT [4] = biological target: T3, SERT (Homo sapiens, UniProt P31645)
T3 construct: expressed in transfected cells
T3 sequence (P31645 whole entry): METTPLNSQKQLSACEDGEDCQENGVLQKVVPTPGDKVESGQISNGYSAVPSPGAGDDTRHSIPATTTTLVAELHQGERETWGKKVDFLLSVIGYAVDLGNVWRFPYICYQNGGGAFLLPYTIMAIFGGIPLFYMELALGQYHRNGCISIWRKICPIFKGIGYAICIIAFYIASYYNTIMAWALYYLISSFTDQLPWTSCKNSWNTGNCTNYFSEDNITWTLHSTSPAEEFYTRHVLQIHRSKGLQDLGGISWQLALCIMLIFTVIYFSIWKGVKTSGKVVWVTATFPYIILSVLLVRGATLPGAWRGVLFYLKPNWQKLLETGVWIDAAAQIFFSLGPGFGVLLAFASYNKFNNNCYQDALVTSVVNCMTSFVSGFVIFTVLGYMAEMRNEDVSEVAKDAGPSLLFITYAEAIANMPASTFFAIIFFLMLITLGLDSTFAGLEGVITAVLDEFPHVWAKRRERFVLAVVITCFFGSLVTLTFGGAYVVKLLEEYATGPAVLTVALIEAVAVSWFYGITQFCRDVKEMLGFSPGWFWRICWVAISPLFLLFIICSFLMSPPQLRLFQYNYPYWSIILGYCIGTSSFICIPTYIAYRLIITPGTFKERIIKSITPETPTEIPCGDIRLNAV

human NET [5] = biological target: T1, human NET; assay: cell-based; conditions: for pIC50 NET: QSAR data matrix, from IC50 NET
SERT [6] = biological target: T3, SERT; assay: Uptake-inhibition of [3H]5-HT in HEK293 cells stably expressing human SERT; type: cell-based
[7] = LC-MS/MS detection of mephedrone metabolites in a human urine sample; type: in vivo; parameters: key to Detected in urine samples: detected (+); not detected (−); conditions: human urine, mephedrone user; only syn- and anti-configurations could be separated
From the text: The biological specimen, human urine, was provided by the Department of Chemical Analytics, Seibersdorf Laboratories GmbH. The sample was taken from a subject postmortem in a fatal case of drug overdose. […] Given this fact, we assumed that also the metabolites would be detectable in sufficient quantity. To evaluate the presence of any metabolites whatsoever in the urine sample we designed an achiral separation protocol for liquid chromatography and we coupled it with triple quadrupole mass spectrometer. The advantage of LC-MS/MS system is that even if two substances have the same retention time, they can still be differentiated by their fragmentation pattern. More in details, the samples for urine analysis were analyzed using a CTC HTS PAL autosampler (CTC Analytics) and a Thermo Surveyor LC system (Thermo) interfaced to a TSQ Quantum Discovery Max triple quadrupole mass spectrometer (Thermo). A C18 security guard cartridge (4 × 2 mm) (Phenomenex) was used for sample clean-up and the analytical HPLC column was a Kinetex 1.7 μm C18 100Å 150 × 2.1 mm (Phenomenex) and Cortecs T3, 2.7 μm C18 120Å 100 × 2.1 mm (Waters). Column selection was performed by a Maylab Mistraswitch column selector (Maylab Analytical Instruments). The solvents were 0.2% formic acid in water (A) and acetonitrile (B). The temperature of the analytical column was maintained at 40°C. The mass spectrometer was equipped with heated electrospray ionization (ESI) source and was operated in positive ionization mode with a spray voltage set at 4500V. The capillary temperature was adjusted to 320°C. The sheath and auxiliary gas (nitrogen) flow rate was 25 and 10 arbitrary units, respectively. The system was operated in selected […] (srm) mode with argon as the collision gas at a pressure of 1.5 mTorr. For the achiral separation, stem solutions were prepared by weighing the reference substances in volumetric flasks and filling them up with MeOH (99.9%; HPLC grade), creating average concentration of 1 mg/ml. Then dilution solutions were prepared as follows: 10 μL of stem solution was filled up to 5 ml MeOH, creating dilution […]. Samples were prepared from dilution solutions by taking out 25 μL and mixing it together with 25 μL of ISP, 50 μL ISS and filled up to 1 ml with Milli-Q water. The final sample solvent was water/MeOH 9/1. For the enzymatic workup, phosphate buffer (1 ml, 0.8M, pH = 7), β-glucuronidase/arylsulfatase (25 μL) and β-glucuronidase (25 μL) were added to the solutions. The solutions were heated at 50°C during 1 h upon which EtOAc (7 ml) was added. The solution was put into shaker for 10min, following centrifugation for 5 min. The organic phase was separated and evaporated into dryness in stream of pressurized nitrogen. The residue was taken up in 150 μL MQ-water/MeOH 9/1 + 0.4% formic acid, heated at 50°C for 5 min and subjected to LC-MS analysis.
If on one hand the synthesis of putative metabolites allows the establishment of structure activity relationships, on the other hand, it provides pure material to evaluate their presence in human urine samples and determine their pharmacological relevance. To determine the presence of any metabolites in the urine sample, we have designed an achiral separation protocol and coupled the liquid chromatography with triple quadrupole mass spectrometer (LCMS/MS). With the LCMS/MS system two substances with the same retention time, can still be differentiated by their fragmentation pattern. Since metabolites carrying a primary alcohol functionality can form glucuronide and sulfate conjugates, we performed an enzymatic workup of the urine sample in order to cleave them. Apart from the parental drug, we detected 4-OH-MMC and 4-MC (nor-meph) which we have both already identified in our previous publication ([Mayer et al., 2019]), and the two previously uncharacterized metabolites 4-COOH-MC and dihydro-4-MC (Figure 6). […]

SERT [8] = biological target: T3, SERT; assay: Transporter electrophysiology (whole cell patch clamp), HEK293 cells stably expressing SERT; type: cell-based; conditions: compound applied at 30 µM, -60 mV
Protocol: (§1) Human embryonic kidney 293 cells (HEK293 cells) were cultivated in Dulbecco’s Modified Eagle Medium (DMEM), containing 10% heat-in- activated fetal calf serum (FCS), streptomycin (100 μg x 100 ml−1) and penicillin (100 U × 100 ml−1). Geneticin (50 μg x mL−1) was added to select HEK293 cells stably expressing the human isoforms of DAT, NET and SERT as described earlier ([Mayer et al., 2016a]). Cell lines were maintained in a sub-confluent state in humidified atmosphere (37°C, 5% CO2). For uptake inhibition experiments cells expressing the desired transporter were seeded the days before the experiment (40,000 cells per well) or two days before the experiments (20,000 cells per well) onto poly-D-lysine (PDL) coated 96-well plates 24 h prior to the experiment. In the case of transporter-electrophysiology cells were cultivated in 10 cm dishes and 24 h before the experiments they were detached, and seeded at low density onto PDL-coated 3 cm dishes.
(§2) Transporter electrophysiology was conducted by the means of whole cell patch clamp in HEK293 cells stably expressing DAT or SERT. Substrate-induced currents were recorded under voltage clamp (−60 mV). Cells were continuously superfused with a physiological external solution that contains 140 mM NaCl, 2.5 mM CaCl2, 2 mM MgCl2, 20 mM glucose and 10 mM HEPES, pH = 7.4. The pipette solution contained 133 mM potassium gluconate, 6 mM NaCl, 1 mM CaCl2, 0.7 mM MgCl2, 10 mM HEPES, 10 mM EGTA, pH = 7.2. Currents elicited by mephedrone 30 μM, were measured at room temperature (20–24°C) using an […] amplifier and pClamp 11.2 software (MDS Analytical Technologies). All the solutions perfused onto the cell were applied using a DAD-12 superfusion system and a 8-tube perfusion manifold (ALA Scientific Instruments), which allowed for rapid solution exchange. Current traces were filtered at 1 kHz and digitized at 10 kHz using a Digidata 1,550 (MDS Analytical Technologies). […] For the analysis, passive holding currents were subtracted, and the traces were filtered using a 100-Hz digital Gaussian low-pass filter.

DAT [9] = biological target: T2, DAT; assay: Transporter electrophysiology (whole cell patch clamp), HEK293 cells stably expressing DAT; type: cell-based; conditions: compound applied at 30 µM, -60 mV
Protocol: as §1, §2

[10] = QSAR data matrix, from IC50 DAT
[11] = QSAR data matrix; unit inferred; compounds not tested in this paper, source not given, presumably ref Mayer et al., 2019; read-out: IC50 SERT; cited from earlier work
[12] = QSAR data matrix, from IC50 SERT
[13] = QSAR data matrix, from IC50 DAT, read-out: pIC50 DAT (converted)
[14] = mean (95% confidence interval), non-linear regression, read-out: IC50 (µM) DAT
[15] = mean (95% confidence interval), non-linear regression, read-out: IC50 (µM) NET
[16] = IC50 (µM) SERT, mean (95% confidence interval), non-linear regression
[17] = IC50 SERT, QSAR data matrix, unit inferred
[18] = in Figure 3, read-out: IC50(SERT)
[19] = mean (95% confidence interval), non-linear regression, read-out: IC50 (µM) SERT

T1 sequence (P23975 whole entry): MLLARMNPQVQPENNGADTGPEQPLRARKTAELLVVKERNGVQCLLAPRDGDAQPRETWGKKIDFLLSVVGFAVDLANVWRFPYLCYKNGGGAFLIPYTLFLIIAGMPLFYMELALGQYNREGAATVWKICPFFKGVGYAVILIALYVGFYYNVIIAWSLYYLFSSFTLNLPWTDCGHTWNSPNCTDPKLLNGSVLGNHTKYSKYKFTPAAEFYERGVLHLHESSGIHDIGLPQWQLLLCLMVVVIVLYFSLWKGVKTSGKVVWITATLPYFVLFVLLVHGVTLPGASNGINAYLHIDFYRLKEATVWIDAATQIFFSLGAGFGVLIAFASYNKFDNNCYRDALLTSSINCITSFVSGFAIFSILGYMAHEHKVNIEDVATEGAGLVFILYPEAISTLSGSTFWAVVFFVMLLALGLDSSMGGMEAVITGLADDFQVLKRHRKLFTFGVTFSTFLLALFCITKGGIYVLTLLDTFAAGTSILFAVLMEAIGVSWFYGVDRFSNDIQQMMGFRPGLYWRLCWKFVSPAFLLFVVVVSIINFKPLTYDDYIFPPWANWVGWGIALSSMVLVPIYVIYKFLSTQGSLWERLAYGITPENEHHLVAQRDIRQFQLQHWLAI

Structure (SMILES)	IC50 (human NET [1]) [µM]	IC50 (DAT [2]) [µM]	pIC50 DAT (DAT [3]; [10])	IC50 (SERT [4]; [11]) [µM]	pIC50 NET (human NET [5])	pIC50 SERT (SERT [6]; [12])	IC50 (DAT [3]; [13]) [µM]	Detected in urine samples [7]	SERT-mediated current (SERT [8])	Selectivity ratio DAT/SERT (DAT [3])	IC50 (DAT [3]; [14]) [µM]	Selectivity ratio NET/DAT (human NET [5])	IC50 (human NET [5]; [15]) [µM]	IC50 (SERT [6]; [16]) [µM]	IC50 (SERT [6]; [17]) [µM]	DAT-mediated current (DAT [9])	other results
CN[C@H](C)[C@H](O)c1ccc(C)cc1 [1R2R-MMC, reference compound]	39.1	14.1	4.85	302	4.41	3.52											
CN[C@@H](C)[C@H](O)c1ccc(C)cc1 [1R2S-MMC, reference compound]	39	21.1	4.68	32.2	4.41	4.49											
CN[C@H](C)[C@@H](O)c1ccc(C)cc1 [1S2R-MMC, reference compound]	22.7	12.7	4.90	65.6	4.64	4.18											
CN[C@@H](C)[C@@H](O)c1ccc(C)cc1 [1S2S-MMC, reference compound]	47.1	12.9	4.89	248	4.33	3.61											
Cc1ccc(C(=O)[C@@H](C)N)cc1 [2R-MC, reference compound]	4.54	9.44	5.03	200	5.34	3.70											
CN[C@H](C)C(=O)c1ccc(C)cc1 [2R-MMC, R-mephedrone, reference compound]							0.776										IC50 (SERT [4]; read-out: IC50 SERT; QSAR data matrix; unit inferred; compounds not tested in this paper, source not given, presumably ref Mayer et al., 2019; cited from earlier work): 74.8 µM; IC50 (human NET [5]): 2.75 µM; IC50 (SERT [6]; pIC50 SERT, QSAR data matrix, from IC50 SERT): 74.1 µM
Cc1ccc([C@@H](O)[C@@H](C)N)cc1 [Dihydro-(R,R)-4-MC]							8.13	+	elicited only SERT-mediated currents	9.26	8.05	0.44	18.1	74.6	74.6		DAT-mediated current (DAT [9]; listed as dihydro-(R,R)-4-MC): absence of DAT-mediated current; DAT-mediated current (DAT [9]; listed as dihydro-(R,R)-4 MC): elicited only SERT-mediated currents
C[C@@H](N)[C@H](O)c1ccc(CO)cc1 [Dihydro-(R,R)-4-OH-MC]							28.2	−	did not elicit any DAT or SERT-mediated current	48.42	28.3	0.61	46.5			did not elicit any DAT or SERT-mediated current	IC50 (SERT [6]; [18]): 1400 µM; IC50 (SERT [6]; [19]): 1370 µM
CN[C@H](C)[C@H](O)c1ccc(CO)cc1 [Dihydro-(R,R)-4-OH-MMC]							25.7	−	did not elicit any DAT or SERT-mediated current	67.72	25.6	0.69	37			did not elicit any DAT or SERT-mediated current	IC50 (SERT [6]; [18]): 1700 µM; IC50 (SERT [6]; [19]): 1740 µM
Cc1ccc([C@@H](O)[C@H](C)N)cc1 [Dihydro-(R,S)-4-MC]							13.5	+	elicited only SERT-mediated currents	4.94	13.5	0.42	32.4	66.9	66.9	elicited only SERT-mediated currents	
Cc1ccc([C@H](O)[C@@H](C)N)cc1 [Dihydro-(S,R)-4-MC]							15.5	+		11.53	15.5	0.37	41.8	178	178	absence of DAT-mediated current	
Cc1ccc([C@H](O)[C@H](C)N)cc1 [Dihydro-(S,S)-4-MC]							22.4	+	elicited only SERT-mediated currents	1.42	22.6	2.37	9.51	32.2	32.2	elicited only SERT-mediated currents	
C[C@H](N)C(=O)c1ccc(CO)cc1 [S-4-OH-MC]								−	elicited both DAT- and SERT mediated currents	2.08	19.2	3.22	5.97			elicited both DAT- and SERT mediated currents	IC50 (SERT [6]; [19]): 40 µM
